Source: the supplement of paper PMC8671470

Tests used:
Conditions in all cases: 72 h
BV-173 [1] = system: BV-173
Outline: (§1)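 In 384-well plates holding acoustically pre-printed compounds at five tenfold doses from 1 to 10,000 nM, in duplicate, fifteen myeloid leukaemia cell lines were grown in RPMI 1640 for 72 h at 37 °C with 5% CO2. Luminescent ATP viability was scaled between vehicle and a positive control at 10 µM. The IC50 was then taken from log-logistic dose–response fits with four parameters.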

HEL [2] = system: HEL
Outline: as §1

HL-60 [3] = system: HL-60
Outline: as §1

K-562 [4] = system: K-562
Outline: as §1

KCL-22 [5] = system: KCL-22
Outline: as §1

KG-1 [6] = system: KG-1
Outline: as §1

KU-812 [7] = system: KU-812
Outline: as §1

LAMA-84 [8] = system: LAMA-84
Outline: as §1

ML-2 [9] = system: ML-2
Outline: as §1

MOLM-13 [10] = system: MOLM-13
Outline: as §1

MV4-11 [11] = system: MV4-11
Outline: as §1

Mono-Mac-6 [12] = system: Mono-Mac-6
Outline: as §1

NOMO-1 [13] = system: NOMO-1
Outline: as §1

SHI-1 [14] = system: SHI-1
Outline: as §1

THP-1 [15] = system: THP-1
Outline: as §1

BV-173 [16] = experiment: cell viability (% survival relative to DMSO control, bortezomib = 0%); higher = less cytotoxic
Outline: (§2)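 After 72 h at 37 °C with 5% CO2, cell viability in 384-well plates was measured by CellTiter-Glo luminescence. The plates held compounds pre-printed at 1, 10, 100, 1000 or 10000 nM in duplicate, and cells from 10 AML and 5 CML lines seeded at densities titrated to linear growth. Percent survival is the duplicate mean, normalised to vehicle as 100% and a 10 µM positive control as 0%.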

HEL [17] = experiment: as above
Outline: as §2

HL-60 [18] = experiment: as above
Outline: as §2

K-562 [19] = experiment: as above
Outline: as §2

KCL-22 [20] = experiment: as above
Outline: as §2

KG-1 [21] = experiment: as above
Outline: as §2

KU-812 [22] = experiment: as above
Outline: as §2

LAMA-84 [23] = experiment: as above
Outline: as §2

ML-2 [24] = experiment: as above
Outline: as §2

MOLM-13 [25] = experiment: as above
Outline: as §2

MV4-11 [26] = experiment: as above
Outline: as §2

Mono-Mac-6 [27] = experiment: as above
Outline: as §2

NOMO-1 [28] = experiment: as above
Outline: as §2

SHI-1 [29] = experiment: as above
Outline: as §2

THP-1 [30] = experiment: as above
Outline: as §2

CC(C)CC(=O)N[C@H](C(=O)N[C@H](C(=O)N[C@@H](CC(C)C)[C@@H](O)CC(=O)N[C@@H](C)C(=O)N[C@@H](CC(C)C)[C@@H](O)CC(=O)O)C(C)C)C(C)C [Pepstatin A]
Conditions	IC50 (cell viability) [µM]
BV-173 [1]	> 10
HEL [2]	> 10
HL-60 [3]	> 10
K-562 [4]	> 10
KCL-22 [5]	> 10
KG-1 [6]	> 10
KU-812 [7]	> 10
LAMA-84 [8]	> 10
ML-2 [9]	> 10
MOLM-13 [10]	> 10
MV4-11 [11]	> 10
Mono-Mac-6 [12]	> 10
NOMO-1 [13]	> 10
SHI-1 [14]	> 10
THP-1 [15]	> 10

cell viability [%]
Conditions	1 nM	10 nM	100 nM	1000 nM	10000 nM
BV-173 [16]	94.2	86.5	106	101	88.4
HEL [17]	98.8	88.3	95.8	105	95.3
HL-60 [18]	99.7	73.7	111	144	84.6
K-562 [19]	95.1	85.5	96.9	101	87.9
KCL-22 [20]	97.4	74.5	101	101	98.7
KG-1 [21]	99.1	77.5	96.8	90.7	93.9
KU-812 [22]	102	101	96.8	111	95.9
LAMA-84 [23]	92.2	87.2	103	96.2	103
ML-2 [24]	96.5	84.5	105	106	91.8
MOLM-13 [25]	109	93.8	109	126	86.5
MV4-11 [26]	87.7	77.9	90	92.3	81.8
Mono-Mac-6 [27]	101	83.7	104	100	101
NOMO-1 [28]	98.3	86.8	106	104	102
SHI-1 [29]	93	87.5	111	105	105
THP-1 [30]	96.3	87.1	103	96.1	97

COc1ccc2c(NC(=O)Nc3cccc(C(F)(F)F)n3)ccnc2c1
Conditions	IC50 (cell viability) [µM]
BV-173 [1]	> 10
HEL [2]	> 10
HL-60 [3]	> 10
K-562 [4]	> 10
KCL-22 [5]	> 10
KG-1 [6]	> 10
KU-812 [7]	> 10
LAMA-84 [8]	> 10
ML-2 [9]	> 10
MOLM-13 [10]	9.04
MV4-11 [11]	> 10
Mono-Mac-6 [12]	> 10
NOMO-1 [13]	> 10
SHI-1 [14]	> 10
THP-1 [15]	> 10

cell viability [%]
Conditions	1 nM	10 nM	100 nM	1000 nM	10000 nM
BV-173 [16]	104	93.6	111	102	87.4
HEL [17]	116	99.2	105	106	108
HL-60 [18]	86.5	129	116	116	98.3
K-562 [19]	104	100	95.3	93.7	103
KCL-22 [20]	101	102	110	94.9	114
KG-1 [21]	90.7	85	92	93.9	120
KU-812 [22]	116	102	108	109	112
LAMA-84 [23]	102	100	105	100	100
ML-2 [24]	101	97.6	109	122	127
MOLM-13 [25]	105	115	113	108	44.5
MV4-11 [26]	102	103	101	85.7	77.2
Mono-Mac-6 [27]	108	92.3	95.7	94.9	97.1
NOMO-1 [28]	97.4	98.2	113	94.5	113
SHI-1 [29]	93.6	109	104	110	85.4
THP-1 [30]	95.5	101	105	95.2	107
